Data set [1] in a line: Metabolic stability in human primary hepatocytes (hepatocyte relay assay). Format: in vitro ADME. Particulars: primary hepatocytes (hepatocyte relay assay), human primary hepatocytes, relay assay, 10 μM, average of two replicate experiments; for half-life at 10 μM: read-out: T½ average. As for the experimental part:
(§1) Metabolic stability of compounds of the invention was assessed in a hepatocyte relay assay. Human primary hepatocytes (Xenotech) were cultured in collagen coated 96-well plates in Williams E (Gibco® 32551087) supplemented with 1% PenStrep (Gibco 15140-122), 1% Fungizone® (Gibco 15290026), 10% heat-inactivated fetal bovine serum (hiFBS) (Gibco 10270-106), 0.1 IU/ml insulin (Sigma 12643) and 7μM hydrocortisone hemisuccinate (Sigma H2270) at 37° C. and 5% CO2. Test compounds were added to a final concentration of 10 μM in 0.1 DMSO. Every 24 hours, the cell supernatant was transferred to freshly plated, metabolically full active cells. At regular time intervals, aliquots of supernatants were frozen for future analysis. At the end of the incubation, all samples were thawed and compound levels in time were determined by LC-MS analyses. Data were analysed by linear regression.

Data set [2] relates to P. falciparum strain Pf3D70087/N9. Description: In vivo antimalarial activity in humanized mouse model for P. falciparum infection. More on the design: species or system Plasmodium falciparum. As for the experimental part:
Reduction of existing parasitemia in vivo was investigated using a humanized mouse model for P. falciparum infection. Female NODscidIL2Rynull mice were engrafted by daily intravenous injection of 0.6 ml of human blood for 11 days. Subsequently, mice were infected with P. falciparum strain Pf3D70087/N9 by injecting 2.10^7 parasites in a volume of 0.2 ml. Four days post infection, mice were treated with a single 50 mg/kg dose of test compound. To this end, compounds were formulated in 70% Tween®-80 (d=1.08g/ml) and 30% ethanol (d=0.81g/ml), followed by a 10-fold dilution in H2O and administered by oral gavage. Parasitemia was followed by daily collection of 2 μl tail blood. The hematocrit was determined by fluorescence-activated cell sorting (FACS) and parasitemia by microscopy on >10,000 red blood cells. […] The compounds indicated at the legend were dosed as a single oral dose of 50 mg/kg at day 4 post infection (indicated by the arrow) and parasitemia was followed for another three days. The data shown in FIG. 1 indicate that all pantothenamide analogues tested show a dramatic reduction in blood stage parasitemia at a single oral dose of 50 mg/kg.

Data set [3] concerns P. falciparum NF54 asexual blood stage parasites. Put plainly: Replication assay for asexual blood-stage parasites (SYBR Green). Format: cell-based. The following applies: Plasmodium falciparum; P. falciparum NF54, 72 h incubation, 10% human serum; average of at least two replicate experiments; read-out: antimalarial IC50 asexual blood stages. The protocol:
(§2) Plasmodium falciparum strain NF54 was cultured in Roswell Park Memorial Institute (RPMI) 1640 medium supplemented with 25 mM NaHCO3, 10% human type A serum and 5% (v/v) human type 0 red blood cells (Sanquin, the Netherlands). Replication assays for asexual blood-stage parasites were performed by diluting parasites in RPMI1640 medium with 10% human serum to a parasitemia of 0.83% and a hematocrit of 3%. 30 μl of diluted parasites were combined with 30 μl of compound serially diluted in DMSO and RPMI1640 medium to reach a final DMSO concentration of 0.1% in a total assay volume of 60 μL. Following a 72 h incubation at 37 ° C., 3% O2, 4% CO2, 30 μL of diluted SYBR® Green reagent was added according to the instructions of the manufacturer (Life Technologies) and fluorescence intensity was quantified using a Biotek Synergy® 2 plate reader. Gametocyte viability assays were initiated by inoculating a culture flask with 1% asexual blood-stage parasites in 5% haematocrit in RPMI1640 medium with 10% human serum. From day 4 to day 9 after inoculation, cultures were treated with 50 mM N-acetylglucosamine to eliminate asexual blood-stage parasites. At day 11 post inoculation, gametocytes (predominantly stage IV) were isolated by Percoll® density gradient centrifugation. Gametocytes were seeded at a density of 5,000 cells/well in a 384 well plate and combined with compound diluted in DMSO and subsequently in RPMI1640 medium to reach a final DMSO concentration of 0.1% in a volume of 60 μL RPMI1640 medium with 10% human serum. Following a 72 h incubation at 37 ° C., 3% O2, 4% CO2, 30 μL of ONE-Glo® reagent (Promega) was added and luminescence was quantified using a Biotek Synergy 2 reader. IC50 values were derived by fitting a four parameter logistic regression model to the data using least squares to find the best fit.

Data set [4] deals with P. falciparum NF54 gametocytes. Put plainly: Gametocyte viability assay (ONE-Glo luminescence). Particulars: Plasmodium falciparum; P. falciparum NF54 gametocytes (predominantly stage IV), 72 h incubation, 10% human serum; average of at least two replicate experiments; read-out: antimalarial IC50 gametocytes. Format: cell-based. The protocol:
as §2

In data set [5] the test system is Human primary hepatocytes. Description: Metabolic stability in human primary hepatocytes (hepatocyte relay assay). Format: in vitro ADME. The following applies: comparative example. The protocol:
as §1

The mark [6] stands for this setting: female NODscidIL2Rγnull mice, single oral dose 50 mg/kg at day 4 post infection.
Setting [7] is: same protocol as example 16, relay assay.

One may read the hepatocyte CLint as a measure of how fast metabolising enzymes remove a compound, apart from limits set by blood flow. The IC50 is the concentration needed to halve the response being measured. In the case of `C[C@@H](CNC(=O)[C@H](O)C(C)(C)CO)NC(=O)c1cc(C#N)ccc1F` [Compound B1, (2R)-N-[(2S)-2-[(5-cyano-2-fluorophenyl)formamido]propyl]-2,4-dihydroxy-3,3-dimethylbutanamide], in data set [1], the hepatocyte CLint at 10 μM turned out to be 0.2 µL/min/1e6 cells and the half-life at 10 μM stood at 107 h. The “In vivo efficacy log reduction in parasitemia in Pf SCID mouse at 50 mg/kg p.o. 1 × QD” value in data set [2] (setting [6]) is on record as 2.4. In addition, the IC50 in data set [3] stood at 6.2 nM. The IC50 in data set [4] turned out to be 21.4 nM.
With `C[C@@H](CNC(=O)[C@H](O)C(C)(C)CO)NC(=O)c1cc(Cl)c(F)cc1F` [Compound D1, (2R)-N-[(2S)-2-[(5-chloro-2,4-difluorophenyl)formamido]propyl]-2,4-dihydroxy-3,3-dimethylbutanamide], the IC50 in data set [3] worked out at 2.3 nM; in data set [4], 0.4 nM.
The molecule `C[C@@H](CNC(=O)[C@H](O)C(C)(C)CO)NC(=O)c1cc(F)c(F)cc1F` [Compound A1, (2R)-2,4-dihydroxy-3,3-dimethyl-N-[(2S)-2-[(2,4,5-trifluorophenyl)formamido]propyl]butanamide] had a hepatocyte CLint at 10 μM in data set [1] of 0.4 µL/min/1e6 cells. The half-life at 10 μM in data set [1] turned out to be 59.4 h. For the same molecule, the “In vivo efficacy log reduction in parasitemia in Pf SCID mouse at 50 mg/kg p.o. 1 × QD” value in data set [2] (setting [6]) is listed as more than 3. Besides, the IC50 is 2.4 nM in data set [3] and 8 nM in data set [4].
With `C[C@@H](CNC(=O)[C@H](O)C(C)(C)CO)NC(=O)c1cccc(F)c1` [Compound E1, (2R)-N-[(2S)-2-[(3-fluorophenyl)formamido]propyl]-2,4-dihydroxy-3,3-dimethylbutanamide], in data set [1], the hepatocyte CLint at 10 μM was 0.5 µL/min/1e6 cells and the half-life at 10 μM turned out to be 42.2 h. Further, in data set [2] (setting [6]), the “In vivo efficacy log reduction in parasitemia in Pf SCID mouse at 50 mg/kg p.o. 1 × QD” value is on record as more than 3. Also, the IC50 in data set [3] is 1.9 nM. Besides, the IC50 in data set [4] turned out to be 2 nM.
Consider `C[C@@H](CNC(=O)[C@H](O)C(C)(C)CO)NC(=O)c1ccc(F)c(Cl)c1` [Compound G1, (2R)-N-[(2S)-2-[(3-chloro-4-fluorophenyl)formamido]propyl]-2,4-dihydroxy-3,3-dimethylbutanamide], for which the IC50 is 3.4 nM in data set [3] and 0.2 nM in data set [4].
In the case of `C[C@@H](CNC(=O)[C@H](O)C(C)(C)CO)NC(=O)c1cccc(C#N)c1` [Compound C1, (2R)-N-[(2S)-2-[(3-cyanophenyl)formamido]propyl]-2,4-dihydroxy-3,3-dimethylbutanamide], in data set [1], the hepatocyte CLint at 10 μM was 0.3 µL/min/1e6 cells and the half-life at 10 μM is 84.1 h. Further, the “In vivo efficacy log reduction in parasitemia in Pf SCID mouse at 50 mg/kg p.o. 1 × QD” value in data set [2] (setting [6]) was more than 3. In addition, the IC50 in data set [3] was found to be 7.4 nM. The IC50 in data set [4] turned out to be 2.2 nM.
With `C[C@@H](CNC(=O)[C@H](O)C(C)(C)CO)NC(=O)c1cccc(Cl)c1` [Compound F1, (2R)-N-[(2S)-2-[(3-chlorophenyl)formamido]propyl]-2,4-dihydroxy-3,3-dimethylbutanamide], the IC50 in data set [3] turned out to be 2.1 nM; in data set [4] it was 0.4 nM.
For the molecule `C[C@H](CNC(=O)[C@@H](O)C(C)(C)CO)NC(=O)CCc1ccccc1F` [MMV689258, reference compound], in data set [5], the “metabolic stability compared with the compounds of the invention (in words)” value was “substantially lower”. Further, in data set [5] (setting [7]), the “Metabolic stability in human hepatocytes Clint” value stood at 0.8 μl/min/10^6 cells and the “Metabolic stability in human hepatocytes T½” value was found to be 29.403 h. In data set [2] (comparative example), the “in vivo efficacy compared with the compounds of the invention (in words)” value is recorded as “substantially less efficacious”. The “In vivo efficacy log reduction in parasitemia in Pf SCID mouse at 50 mg/kg p.o. 1 × QD” value in data set [2] (comparative example, same protocol as example 17, female NODscidIL2Rγnull mice) is listed as 1.5.

These data come from patent US11834391B2, “Pantothenamide analogues” (MMV MEDICINES FOR MALARIA VENTURE, priority 2018, dated 2023).
